Measured values: PubChem BioAssay AID248 (DTP/NCI, 2004)
Where “and” joins values, the source holds several entries; their conditions need not be identical. Equal values may be shown once. Toxic doses and inconclusive results are not listed. Rule as the data show it: active = T/C of 150% or more; inactive = T/C below 125%. Square brackets hold non-standard residues; d marks the D form. Peptide text beside a SMILES is read from it. * marks the point of attachment. ξ: configuration not given here. Octanoyl = CCCCCCCC(=O)*; OBn = c1ccc(CO*)cc1; ξP = O=C(O)C1CCCN1

System: L1210 leukemia ip in BDF1 mice, survival T/C
Experiment: NCI In Vivo Anticancer Drug Screen. Data for tumor model L1210 Leukemia (intraperitoneal) in B6D2F1 (BDF1) mice
Conditions: endpoint: mean survival time, higher = longer survival
Procedure, shortened: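 Value reflects the ratio of survival in compound-treated mice to survival in vehicle-treated controls, with both groups carrying the same transplanted tumor.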

[1] = dose: 100.0 mg/kg/injection, schedule: Q01DX009 (ip), vehicle: saline
[2] = dose: 50.0 mg/kg/injection, schedule: Q01DX001 (ip), vehicle: carboxymethylcellulose (CMC)
[3] = dose: 100.0 mg/kg/injection, schedule: Q01DX001 (ip), vehicle: carboxymethylcellulose (CMC)
[4] = dose: 200.0 mg/kg/injection, schedule: Q01DX001 (ip), vehicle: carboxymethylcellulose (CMC)
[5] = dose: 400.0 mg/kg/injection, schedule: Q01DX001 (ip), vehicle: carboxymethylcellulose (CMC)
[6] = dose: 100.0 mg/kg/injection, schedule: Q01DX001 (ip), vehicle: saline
[7] = dose: 200.0 mg/kg/injection, schedule: Q01DX001 (ip), vehicle: saline
[8] = dose: 400.0 mg/kg/injection, schedule: Q01DX001 (ip), vehicle: saline
[9] = dose: 400.0 mg/kg/injection, schedule: Q01DX009 (ip), vehicle: Klucel (hydroxypropylcellulose) (HPC)
[10] = dose: 400.0 mg/kg/injection, schedule: Q04DX003 (ip), vehicle: Klucel (hydroxypropylcellulose) (HPC)
[11] = dose: 100.0 mg/kg/injection, schedule: Q01DX009 (ip), vehicle: saline with Tween-80
[12] = dose: 200.0 mg/kg/injection, schedule: Q01DX009 (ip), vehicle: saline with Tween-80
[13] = dose: 400.0 mg/kg/injection, schedule: Q01DX009 (ip), vehicle: saline with Tween-80
[14] = dose: 100.0 mg/kg/injection, schedule: Q04DX003 (ip), vehicle: saline
[15] = dose: 200.0 mg/kg/injection, schedule: Q04DX003 (ip), vehicle: saline
[16] = dose: 400.0 mg/kg/injection, schedule: Q04DX003 (ip), vehicle: saline
[17] = dose: 100.0 mg/kg/injection, schedule: Q04DX003 (ip), vehicle: Klucel (hydroxypropylcellulose) (HPC)
[18] = dose: 200.0 mg/kg/injection, schedule: Q04DX003 (ip), vehicle: Klucel (hydroxypropylcellulose) (HPC)
[19] = dose: 100.0 mg/kg/injection, schedule: Q04DX003 (ip), vehicle: saline with Tween-80
[20] = dose: 200.0 mg/kg/injection, schedule: Q04DX003 (ip), vehicle: saline with Tween-80
[21] = dose: 400.0 mg/kg/injection, schedule: Q04DX003 (ip), vehicle: saline with Tween-80

Measured: T/C

CC(=O)OCC(=O)[C@@]1(O)CC[C@H]2[C@@H]3C[C@H](C)C4=CC(=O)C=C[C@]4(C)[C@@]3(Br)[C@@H](O)C[C@@]21C
inactive: dose: 50.0 mg/kg/injection, schedule: Q01DX001 (sc), vehicle: steriod suspending solution 101 % of control | dose: 100.0 mg/kg/injection, schedule: Q01DX001 (sc), vehicle: steriod suspending solution 109 % of control | dose: 200.0 mg/kg/injection, schedule: Q01DX001 (sc), vehicle: steriod suspending solution 106 % of control | dose: 400.0 mg/kg/injection, schedule: Q01DX001 (sc), vehicle: steriod suspending solution 104 % of control

COc1cc2ccncc2cc1OCc1ccccc1
inactive: dose: 25.0 mg/kg/injection, schedule: Q01DX009 (ip), vehicle: saline 104 % of control | dose: 50.0 mg/kg/injection, schedule: Q01DX009 (ip), vehicle: saline 96 % of control | [1] 102 % of control

O=C(Nc1cc(Cl)cc(Cl)c1)C(Cl)Cl
inactive: [2] 117 % of control | [3] 109 % of control | [4] 105 % of control | [5] 109 % of control

Cc1ccc(S(=O)(=O)NNC(=O)c2ccccc2NCCO)cc1
inactive: [6] 101 % of control | [7] 101 % of control | [8] 103 % of control

O=c1[nH]cc[nH]1
inactive: [6] 100 % of control | dose: 178.0 mg/kg/injection, schedule: Q01DX009 (ip), vehicle: saline 109 % of control | [7] 105 % of control | dose: 267.0 mg/kg/injection, schedule: Q01DX009 (ip), vehicle: Klucel (hydroxypropylcellulose) (HPC) 106 % of control | dose: 267.0 mg/kg/injection, schedule: Q01DX009 (ip), vehicle: saline 119 % of control | dose: 267.0 mg/kg/injection, schedule: Q04DX003 (ip), vehicle: Klucel (hydroxypropylcellulose) (HPC) 105 % of control | [8] 109 % of control | [9] 117 % of control | [10] 104 % of control | dose: 600.0 mg/kg/injection, schedule: Q04DX003 (ip), vehicle: Klucel (hydroxypropylcellulose) (HPC) 109 % of control

CC(=O)Oc1ccc2c(c1N=NN(C)C)CCC1C2CCC2(C)C(=O)CCC12 (stereo unspecified)
inactive: dose: 100.0 mg/kg/injection, schedule: Q01DX001 (ip), vehicle: Klucel (hydroxypropylcellulose) (HPC) 98 % of control | dose: 200.0 mg/kg/injection, schedule: Q01DX001 (ip), vehicle: Klucel (hydroxypropylcellulose) (HPC) 104 % of control

CC(=O)NC1CCC(S(=O)(=O)N2N=NC3CCCCC32)CC1 (stereo unspecified)
inactive: [11] 98 % of control | [12] 93 % of control | [13] 92 % of control

CC(=O)CO
inactive: [2] 98 % of control | [3] 101 % of control | [1] 90 % of control | [14] 93 % of control | [4] 101 % of control | dose: 200.0 mg/kg/injection, schedule: Q01DX009 (ip), vehicle: saline 97 % of control | [15] 96 % of control | [5] 98 % of control | dose: 400.0 mg/kg/injection, schedule: Q01DX009 (ip), vehicle: saline 100 % of control | [16] 101 % of control

CCOC(=O)C1CC(=O)C(C(=O)OCC)CC1=O (stereo unspecified)
inactive: [6] 101 % of control | [7] 95 % of control | [8] 95 % of control

CCCCCCCC(=O)N1CCCC1C(=O)NCC(=O)NCC(=O)OCc1ccccc1 (stereo not drawn) (Octanoyl-[ξP]-Gly-Gly-OBn)
inactive: dose: 100.0 mg/kg/injection, schedule: Q04DX002 (ip), vehicle: Klucel (hydroxypropylcellulose) (HPC) 94 % of control | dose: 200.0 mg/kg/injection, schedule: Q04DX002 (ip), vehicle: Klucel (hydroxypropylcellulose) (HPC) 86 % of control | dose: 400.0 mg/kg/injection, schedule: Q04DX002 (ip), vehicle: Klucel (hydroxypropylcellulose) (HPC) 105 % of control

O=S(=O)(O)C1(C(Cl)Cl)CCCCC1 (tested in a mixture with another compound)
inactive: dose: 9.0 mg/kg/injection, schedule: Q01DX001 (ip), vehicle: other 100 % of control | dose: 18.0 mg/kg/injection, schedule: Q01DX001 (ip), vehicle: other 105 % of control | dose: 37.0 mg/kg/injection, schedule: Q01DX001 (ip), vehicle: other 105 % of control | dose: 75.0 mg/kg/injection, schedule: Q01DX001 (ip), vehicle: other 104 % of control | dose: 150.0 mg/kg/injection, schedule: Q01DX001 (ip), vehicle: other 111 % of control | dose: 300.0 mg/kg/injection, schedule: Q01DX001 (ip), vehicle: other 115 % of control

CCOC(=O)c1[nH]c(C)c(C(=O)OCC)c1-c1ccccc1
inactive: dose: 100.0 mg/kg/injection, schedule: Q01DX001 (ip), vehicle: saline with Tween-80 98 % of control | dose: 200.0 mg/kg/injection, schedule: Q01DX001 (ip), vehicle: saline with Tween-80 106 % of control | dose: 400.0 mg/kg/injection, schedule: Q01DX001 (ip), vehicle: saline with Tween-80 100 % of control

O=C(O)C1CC2C=CC1C2 (stereo unspecified)
inactive: [11] 101 % of control | [14] 102 % of control | [12] 101 % of control | [15] 94 % of control | [13] 102 % of control | [16] 105 % of control

Clc1nc2nc3n(c2nc1Cl)CCC3(Br)Br
inactive: dose: 12.5 mg/kg/injection, schedule: Q01DX009 (ip), vehicle: other 112 % of control | dose: 25.0 mg/kg/injection, schedule: Q01DX009 (ip), vehicle: other 114 % of control | dose: 50.0 mg/kg/injection, schedule: Q01DX009 (ip), vehicle: other 112 % of control | dose: 100.0 mg/kg/injection, schedule: Q01DX009 (ip), vehicle: other 110 % of control

COC(=O)/C=C1/Nc2cc(Cl)c(OC)cc2C(=O)NC1=O
inactive: dose: 75.0 mg/kg/injection, schedule: Q04DX003 (ip), vehicle: other 91 % of control | dose: 150.0 mg/kg/injection, schedule: Q04DX003 (ip), vehicle: other 91 % of control

O=[N+]([O-])c1cc(Br)c2c(c1)CCN2
inactive: dose: 12.5 mg/kg/injection, schedule: Q01DX005 (ip), vehicle: other 100 % of control | dose: 25.0 mg/kg/injection, schedule: Q01DX005 (ip), vehicle: other 102 % of control | dose: 50.0 mg/kg/injection, schedule: Q01DX005 (ip), vehicle: other 100 % of control | dose: 100.0 mg/kg/injection, schedule: Q01DX005 (ip), vehicle: other 105 % of control | dose: 200.0 mg/kg/injection, schedule: Q01DX005 (ip), vehicle: other 102 % of control

Cc1ccc(S(=O)(=O)OCC2C3CCC(C4CCC43)C2COS(=O)(=O)c2ccc(C)cc2)cc1 (stereo unspecified)
inactive: [17] 96 % of control | [18] 93 % of control | [10] 91 % of control

COc1cccc(C(=O)C(CCC#N)c2ccccc2)c1 (stereo unspecified)
inactive: dose: 100.0 mg/kg/injection, schedule: Q01DX009 (ip), vehicle: Klucel (hydroxypropylcellulose) (HPC) 98 % of control | [17] 106 % of control | dose: 200.0 mg/kg/injection, schedule: Q01DX009 (ip), vehicle: Klucel (hydroxypropylcellulose) (HPC) 98 % of control | [18] 100 % of control | [9] 96 % of control | [10] 95 % of control

O=C(O)CCC(C(=O)O)N1C(=O)C2C3CCC(C3)C2C1=O (stereo unspecified)
inactive: dose: 25.0 mg/kg/injection, schedule: Q04DX003 (ip), vehicle: saline with Tween-80 93 % of control | dose: 50.0 mg/kg/injection, schedule: Q04DX003 (ip), vehicle: saline with Tween-80 96 % of control | [19] 93 % of control and 98 % of control | [20] 95 % of control | [21] 98 % of control

Cc1c(N)nc(Br)c2ccccc12
inactive: [19] 105 % of control | [20] 101 % of control | [21] 110 % of control

CCN(CC)c1ccc2c(c1)Cc1ccccc1-2
inactive: [19] 100 % of control | [20] 98 % of control | [21] 100 % of control
